Measured values as given in patent publication US20200407398A1, “Short Proline-Rich Lipopeptide Potentiates Minocycline and Rifampicin Against Multidrug-and Extensively Drug-Resistant Pseudomonas Aeruginosa” (priority 2018, published 2020).
Peptide text beside a SMILES is read from it. * marks the point of attachment. Lauroyl = CCCCCCCCCCCC(=O)*

Assays:
Format in all cases: cell-based
[1] = system: A. baumannii CAN-ICU 63169
How it was run: (§1)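 Antibacterial potency was recorded as MIC. Each isolate was grown in Mueller-Hinton broth against twofold compound dilutions (inoculum 5×10^5 CFU/mL, 37° C., 18 h), and the lowest concentration lacking turbidity was taken, with optical density at 590 nm as confirmation.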

E. coli ATCC 25922 = system: E. coli ATCC 25922
How it was run: as §1

[2] = system: E. coli CAN-ICU 63074 (amikacin-intermediate resistant)
How it was run: as §1

K. pneumoniae ATCC 13883 = system: K. pneumoniae ATCC 13883
How it was run: as §1

[3] = system: P. aeruginosa CANWARD-2011 96846 (gentamicin-, tobramycin-resistant)
How it was run: as §1

[4] = system: P. aeruginosa wild-type PAO1
How it was run: as §1

S. aureus ATCC 29213 = system: S. aureus ATCC 29213
How it was run: as §1

[5] = system: S. maltophilia CAN-ICU 62584
How it was run: as §1

[6] = system: methicillin-resistant S. aureus ATCC 33592
How it was run: as §1

[7] = system: methicillin-susceptible Staphylococcus epidermidis CANWARD-2008 81388; settings: methicillin-susceptible CANWARD-2008 81388
How it was run: as §1

pig erythrocytes = system: pig erythrocytes
How it was run: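 Washed pig erythrocytes in PBS were mixed with 2-fold serial dilutions of peptide and incubated for 1 h at 37° C. Released hemoglobin in the supernatant was read at 570 nm, with PBS and 0.1% Triton X-100 as controls. MHC was the minimum concentration giving 5% hemolysis.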

For `CCCCCCCCCCCC(=O)N1CCC[C@H]1C(=O)N[C@@H](CCCNC(=N)N)C(=O)N1CCC[C@H]1C(=O)N[C@@H](CCCNC(=N)N)C(=O)N1CCC[C@H]1C(=O)N[C@@H](CCCNC(=N)N)C(=O)N1CCC[C@H]1C(N)=O` [Compound C12-PRP, CH3(CH2)10CO-PRPRPRP-NH2] (Lauroyl-PRPRPRP-NH2), the MIC [1] was >128 µg/mL, the MIC (E. coli ATCC 25922) was >128 µg/mL and the MIC [2] was >128 µg/mL. For the same compound, the MIC (K. pneumoniae ATCC 13883) was >128 µg/mL, the MIC [3] was >128 µg/mL and the MIC [4] was 128 µg/mL. For the same compound, the MIC (S. aureus ATCC 29213) was 128 µg/mL, the MIC [5] was >128 µg/mL and the MIC [6] was >128 µg/mL. The MIC [7] was 32 µg/mL, the “MHC (minimum concentration that resulted in 5% red blood cell hemolysis)” value (pig erythrocytes) was > 512 µg/mL and the hemolysis (pig erythrocytes; red cells of porcine, 512 μg/mL) was 4.6±0.2%.
